# Measured values from patent US11844794B2, “Pharmaceutical compositions” (ADEPTIO PHARMACEUTICALS LIMITED, priority 2017, dated 2023).
# Key:
# [1] = moisture-sorption analysis; format: physicochemical; conditions: for moisture uptake: 25° C.
# Experimental: Moisture-sorption analysis was carried out using a Hiden IGA Sorp moisture-sorption analyser. […] The sample was then subjected to an isothermal (at 25° C.) adsorption scan from 40 to 90% relative humidity in steps of 10%. The sample was allowed to equilibrate to an asymptotic weight at each point for a maximum of four hours. […] An adsorption scan was then performed from 0 to 40% relative humidity inn steps of 10%. The sample was dried for two hours at 60° C. and 0% relative humidity, and the resulting solid was analysed by XRPD.
# [2] = equilibrium aqueous solubility by HPLC; format: physicochemical; conditions: water, thermodynamic from solid
# Experimental: The aqueous solubilities of salts were measured by an equilibrium method in which an amount of the salt was weighed into a 2 ml vial equipped with a magnetic stirrer bar and water added. In cases where complete dissolution was observed, more material was added until the sample was exhausted. The slurry was then stirred for seven days before isolating the solids by centrifuge-filtration. The solids were analysed by XRPD and the filtrates were analysed by HPLC to determine the amount of (+)-alpha-dihydrotetrabenazine salt in solution. The solubilities were calculated against a calibration curve established for a (+)-alpha-dihydrotetrabenazine sample of known concentration.
# [3] = pharmacokinetics after oral administration to male Beagle dogs; format: in vivo, Beagle dog
# Experimental: Doses were administered orally, via gavage, at a dose volume of 2.00 mL/kg yielding the target dose level of 1.50 mg/kg. Following dosing, 10 mL of tap water was flushed down the gavage to ensure the entire dose was dispensed. Following dosing over four sessions each with one of the test materials, serial whole blood samples (circa. 1.3 mL) were collected from a jugular vein then placed into K2 EDTA treated tubes pre-dose and then 0.25, 0.50, 1, 2, 3, 4, 6, 12 and 24 hours post dose. Blood samples were placed immediately on a cool-block before being centrifuged within 15 minutes at 3,000×g, 10 minutes, 4° C. and resultant plasma drawn off. […] Doses were administered orally, via gavage, at a dose volume of 2.00 mL/kg yielding the target dose level of 1.50 mg/kg. Following dosing, 10 mL of tap water was flushed down the gavage to ensure the entire dose was dispensed. Following dosing over four sessions each with one of the test materials, serial whole blood samples (circa. 1.3 mL) were collected from a jugular vein then placed into K2 EDTA treated tubes pre-dose and then 0.25, 0.50, 1, 2, 3, 4, 6, 12 and 24 hours post dose. Blood samples were placed immediately on a cool-block before being centrifuged within 15 minutes at 3,000×g, 10 minutes, 4° C. and resultant plasma drawn off.
# [4] = male, Beagle (HsdRcc:DOBE), dog, plasma, po, 1.5 mg/kg, Plasma concentration of (+)-α-dihydrotetrabenazine, Male 1, oral 1.50 mg/kg (freebase equivalent)
# [5] = male, Beagle (HsdRcc:DOBE), dog, plasma, po, 1.5 mg/kg, Plasma concentration of (+)-α-dihydrotetrabenazine, Male 2, oral 1.50 mg/kg (freebase equivalent)
# [6] = male, Beagle (HsdRcc:DOBE), dog, plasma, po, 1.5 mg/kg, Plasma concentration of (+)-α-dihydrotetrabenazine, Male 3, oral 1.50 mg/kg (freebase equivalent)
# [7] = male, Beagle (HsdRcc:DOBE), dog, plasma, po, 1.5 mg/kg, Plasma concentration of (+)-α-dihydrotetrabenazine, Mean of 3 dogs, oral 1.50 mg/kg (freebase equivalent)
# [8] = male, Beagle (HsdRcc:DOBE), dog, plasma, po, 1.5 mg/kg, Plasma concentration of (+)-α-dihydrotetrabenazine, Mean of 3 dogs, oral 1.50 mg/kg (freebase equivalent), BLQ treated as zero
compound,measurement,setting,value
COc1cc2c(cc1OC)[C@H]1C[C@@H](O)[C@H](CC(C)C)CN1CC2.O=C(O)CCC(=O)O [(+)-α-dihydrotetrabenazine succinate],moisture uptake,[1]; 60% relative humidity,0.6 weight %
same,moisture uptake,[1]; 90% relative humidity,1.3 weight %
same,XRPD pattern after moisture sorption studies,[1]; dried at 60° C. and 0% relative humidity,No change
same,hygroscopicity,[1]; gravimetric moisture-sorption,slightly hygroscopic
same,solubility thermodynamic at 7 days,[2],> 350 mg/mL
same,time post dose at which Cmax was observed,"[3]; dog, in vivo, po, 1.5 mg/kg",0.33 h
same,mean exposure,"[3]; male Beagle dogs, oral 1.50 mg/kg (freebase equivalent)",71.8782 ng·mL·h
same,concentration at 0.25 h,[3]; [4],66.7 ng/mL
same,concentration at 0.5 h,[3]; [4],47.6 ng/mL
same,concentration at 1 h,[3]; [4],23.4 ng/mL
same,concentration at 2 h,[3]; [4],7.04 ng/mL
same,concentration at 3 h,[3]; [4],2.48 ng/mL
same,concentration at 4 h,[3]; [4],1.03 ng/mL
same,concentration at 6 h,[3]; [4],0.304 ng/mL
same,concentration at 0.5 h,[3]; [5],32.4 ng/mL
same,concentration at 1 h,[3]; [5],14.8 ng/mL
same,concentration at 2 h,[3]; [5],3.65 ng/mL
same,concentration at 3 h,[3]; [5],1.23 ng/mL
same,concentration at 4 h,[3]; [5],0.531 ng/mL
same,concentration at 0.5 h,[3]; [6],83.1 ng/mL
same,concentration at 1 h,[3]; [6],49.2 ng/mL
same,concentration at 2 h,[3]; [6],21.7 ng/mL
same,concentration at 3 h,[3]; [6],10.6 ng/mL
same,concentration at 4 h,[3]; [6],6.21 ng/mL
same,concentration at 6 h,[3]; [6],1.68 ng/mL
same,concentration at 12 h,[3]; [6],0.212 ng/mL
same,concentration at 0 h,"[3]; male, Beagle (HsdRcc:DOBE), dog, plasma, po, 1.5 mg/kg, Plasma concentration of (+)-α-dihydrotetrabenazine, Mean of 3 dogs, oral 1.50 mg/kg (freebase equivalent), 0 h (pre-dose), BLQ treated as zero",0 ng/mL
same,concentration at 0.25 h,[3]; [7],46 ng/mL
same,concentration at 0.5 h,[3]; [7],54.4 ng/mL
same,concentration at 1 h,[3]; [7],29.1 ng/mL
same,concentration at 2 h,[3]; [7],10.8 ng/mL
same,concentration at 3 h,[3]; [7],4.77 ng/mL
same,concentration at 4 h,[3]; [7],2.59 ng/mL
same,concentration at 6 h,[3]; [8],0.66 ng/mL
same,concentration at 12 h,[3]; [8],0.07 ng/mL
same,concentration at 24 h,"[3]; male, Beagle (HsdRcc:DOBE), dog, plasma, po, 1.5 mg/kg, Plasma concentration of (+)-α-dihydrotetrabenazine, Mean of 3 dogs, oral 1.50 mg/kg (freebase equivalent), 24 h, BLQ treated as zero",0 ng/mL
same,Cmax,"[3]; male, Beagle, dog, in vivo, po, 1.5 mg/kg",64.3 ng/mL
